In brackets after ≈: the same amount, converted by molar mass.
Key:
Format in all cases: functional
Enterococcus = assay: Antibacterial activity against vancomycin-resistant Enterococcus assessed as inhibition of bacterial growth by CLSI protocol based method
Staphylococcus aureus [1] = assay: Antibacterial activity against Staphylococcus aureus ATCC 29213 assessed as inhibition of bacterial growth by CLSI protocol based method
Staphylococcus aureus [2] = assay: Antibacterial activity against methicillin-resistant Staphylococcus aureus assessed as inhibition of bacterial growth by CLSI protocol based method
Staphylococcus aureus [3] = assay: Antibacterial activity against Staphylococcus aureus NCIM 5257 assessed as inhibition of bacterial growth incubated for 24 hrs by serial broth dilution method
Bacillus subtilis [4] = assay: Antibacterial activity against Bacillus subtilis NCIM 2097 assessed as inhibition of bacterial growth incubated for 24 hrs by serial broth dilution method
Escherichia coli [5] = assay: Antibacterial activity against Escherichia coli NCIM 2065 assessed as inhibition of bacterial growth incubated for 24 hrs by serial dilution method
Klebsiella pneumoniae = assay: Antibacterial activity against Klebsiella pneumoniae NCIM 5289 assessed as inhibition of bacterial growth incubated for 24 hrs by serial dilution method
Pseudomonas aeruginosa [6] = assay: Antibacterial activity against Pseudomonas aeruginosa NCIM 5210 assessed as inhibition of bacterial growth incubated for 24 hrs by serial dilution method
Enterococcus faecalis [7] = assay: Antibacterial activity against Streptococcus faecalis NCIM 2080 assessed as inhibition of bacterial growth incubated for 24 hrs by serial dilution method
Pseudomonas aeruginosa [8] = assay: Antibacterial activity against Pseudomonas aeruginosa assessed as inhibition of bacterial growth measured per 100 uL incubated for 24 hrs by agar well diffusion method
Candida albicans = assay: Antifungal activity against Candida albicans assessed as inhibition of fungal growth incubated measured per 100 uL incubated for 24 hrs by agar well diffusion method
Saccharomyces cerevisiae = assay: Antifungal activity against Saccharomyces cerevisiae assessed as inhibition of fungal growth incubated measured per 100 uL incubated for 24 hrs by agar well diffusion method
Escherichia coli [9] = assay: Antibacterial activity against Escherichia coli assessed as inhibition of bacterial growth measured per 100 uL incubated for 24 hrs by agar well diffusion method
Staphylococcus aureus [10] = assay: Antibacterial activity against Staphylococcus aureus assessed as inhibition of bacterial growth measured per 100 uL incubated for 24 hrs by agar well diffusion method
Bacillus subtilis [11] = assay: Antibacterial activity against Bacillus subtilis assessed as inhibition of bacterial growth measured per 100 uL incubated for 24 hrs by agar well diffusion method
[12] = system: Staphylococcus epidermidis; assay: Antibacterial activity against Staphylococcus epidermidis ATCC 12228 assessed as inhibition of bacterial growth incubated for 18 to 24 hrs by CLSI protocol based Tryptic soy broth method; conditions: time 18-24 hrs
Staphylococcus aureus [13] = assay: Antibacterial activity against methicillin-resistant Staphylococcus aureus assessed as inhibition of bacterial growth incubated for 18 to 24 hrs by CLSI protocol based Tryptic soy broth method; conditions: time 18-24 hrs
Staphylococcus aureus [14] = assay: Antibacterial activity against Staphylococcus aureus ATCC 25923 assessed as inhibition of bacterial growth incubated for 18 to 24 hrs by CLSI protocol based Tryptic soy broth method; conditions: time 18-24 hrs
Enterococcus faecalis [15] = assay: Antibacterial activity against Enterococcus faecalis ATCC 29212 assessed as inhibition of bacterial growth incubated for 18 to 24 hrs by CLSI protocol based Tryptic soy broth method; conditions: time 18-24 hrs

## CC(=O)NC[C@H]1CN(c2ccc(N3CCN(/N=C/c4ccccc4[N+](=O)[O-])CC3)c(F)c2)C(=O)O1
Enterococcus
  MIC: 2 µg/mL (≈ 4.13 µM)
Staphylococcus aureus [1]
  MIC: 2 µg/mL (≈ 4.13 µM)
Staphylococcus aureus [2]
  MIC: 1 µg/mL (≈ 2.06 µM)

## CC(=O)NC[C@H]1CN(c2ccc(N3CCN(/N=C/c4cccc([N+](=O)[O-])c4)CC3)c(F)c2)C(=O)O1
Enterococcus
  MIC: 2 µg/mL (≈ 4.13 µM)
Staphylococcus aureus [1]
  MIC: 2 µg/mL (≈ 4.13 µM)
Staphylococcus aureus [2]
  MIC: 1 µg/mL (≈ 2.06 µM)

## O=C(/C=C/c1ccc([N+](=O)[O-])cc1)c1ccc(-c2ccc(N3C[C@H](CO)OC3=O)cc2)cc1
Staphylococcus aureus [3]
  MIC: 3.12 µg/mL (≈ 7.03 µM)
Bacillus subtilis [4]
  MIC: 3.12 µg/mL (≈ 7.03 µM)
Escherichia coli [5]
  MIC: 3.12 µg/mL (≈ 7.03 µM)
Klebsiella pneumoniae
  MIC: 3.12 µg/mL (≈ 7.03 µM)
Pseudomonas aeruginosa [6]
  MIC: 3.12 µg/mL (≈ 7.03 µM)
Enterococcus faecalis [7]
  MIC: 3.12 µg/mL (≈ 7.03 µM)

## CC(=O)NC[C@H]1CN(c2ccc(N3CCOCC3)c(F)c2)C(=O)O1 [LINEZOLID]
Enterococcus
  MIC: 2 µg/mL (≈ 5.93 µM)

## O=C1NC(Cc2ccc(Nc3nc(-c4ccc5ccccc5c4)cs3)cc2)CO1 (stereo not drawn)
Pseudomonas aeruginosa [8]
  MIC: 12.5 µg
Candida albicans
  MIC: 12.5 µg
Saccharomyces cerevisiae
  MIC: 12.5 µg
Escherichia coli [9]
  MIC: 12.5 µg
Staphylococcus aureus [10]
  MIC: 6.25 µg
Bacillus subtilis [11]
  MIC: 25 µg

## CCCCc1cn(C[C@H]2CN(c3ccc(OCc4nc(C)c(C)nc4C)c(F)c3)C(=O)O2)nn1
[12]
  MIC: > 128 µg/mL
Staphylococcus aureus [13]
  MIC: > 128 µg/mL
Staphylococcus aureus [14]
  MIC: > 128 µg/mL
Enterococcus faecalis [15]
  MIC: > 128 µg/mL

## COCC(=O)NC[C@H]1CN(c2ccc(OCc3nc(C)c(C)nc3C)c(F)c2)C(=O)O1
[12]
  MIC: 32 µg/mL (≈ 74 µM)
Staphylococcus aureus [13]
  MIC: 32 µg/mL (≈ 74 µM)
Staphylococcus aureus [14]
  MIC: 128 µg/mL (≈ 296 µM)
Enterococcus faecalis [15]
  MIC: 128 µg/mL (≈ 296 µM)

## O=C1NC(Cc2ccc(Nc3nc(-c4ccc(Br)cc4)cs3)cc2)CO1 (stereo not drawn)
Pseudomonas aeruginosa [8]
  MIC: 12.5 µg
Candida albicans
  MIC: 12.5 µg
Saccharomyces cerevisiae
  MIC: 12.5 µg
Escherichia coli [9]
  MIC: 12.5 µg
Staphylococcus aureus [10]
  MIC: 6.25 µg
Bacillus subtilis [11]
  MIC: 6.25 µg

## COc1cc(/C=C/C(=O)c2ccc(-c3ccc(N4C[C@H](CO)OC4=O)cc3)cc2)ccc1O
Staphylococcus aureus [3]
  MIC: 3.12 µg/mL (≈ 7.02 µM)
Bacillus subtilis [4]
  MIC: 3.12 µg/mL (≈ 7.02 µM)
Escherichia coli [5]
  MIC: 3.12 µg/mL (≈ 7.02 µM)
Klebsiella pneumoniae
  MIC: 3.12 µg/mL (≈ 7.02 µM)
Pseudomonas aeruginosa [6]
  MIC: 3.12 µg/mL (≈ 7.02 µM)
Enterococcus faecalis [7]
  MIC: 3.12 µg/mL (≈ 7.02 µM)

## O=C(/C=C/c1ccccc1O)c1ccc(-c2ccc(N3C[C@H](CO)OC3=O)cc2)cc1
Staphylococcus aureus [3]
  MIC: 3.12 µg/mL (≈ 7.52 µM)
Bacillus subtilis [4]
  MIC: 3.12 µg/mL (≈ 7.52 µM)
Escherichia coli [5]
  MIC: 3.12 µg/mL (≈ 7.52 µM)
Klebsiella pneumoniae
  MIC: 3.12 µg/mL (≈ 7.52 µM)
Pseudomonas aeruginosa [6]
  MIC: 3.12 µg/mL (≈ 7.52 µM)
Enterococcus faecalis [7]
  MIC: 3.12 µg/mL (≈ 7.52 µM)

## O=C(/C=C/c1ccc(Cl)cc1)c1ccc(-c2ccc(N3C[C@H](CO)OC3=O)cc2)cc1
Staphylococcus aureus [3]
  MIC: 3.12 µg/mL (≈ 7.2 µM)
Bacillus subtilis [4]
  MIC: 3.12 µg/mL (≈ 7.2 µM)
Escherichia coli [5]
  MIC: 3.12 µg/mL (≈ 7.2 µM)
Klebsiella pneumoniae
  MIC: 3.12 µg/mL (≈ 7.2 µM)
Pseudomonas aeruginosa [6]
  MIC: 3.12 µg/mL (≈ 7.2 µM)
Enterococcus faecalis [7]
  MIC: 3.12 µg/mL (≈ 7.2 µM)

## CC(=O)NC[C@H]1CN(c2ccc(N3CCN(/N=C/Cn4c([N+](=O)[O-])cnc4C)CC3)c(F)c2)C(=O)O1
Enterococcus
  MIC: 4 µg/mL (≈ 7.96 µM)
Staphylococcus aureus [1]
  MIC: 1 µg/mL (≈ 1.99 µM)
Staphylococcus aureus [2]
  MIC: 1 µg/mL (≈ 1.99 µM)

## Cc1nc(C)c(COc2ccc(N3C[C@H](Cn4ccnn4)OC3=O)cc2)nc1C
[12]
  MIC: 64 µg/mL (≈ 162 µM)
Staphylococcus aureus [13]
  MIC: 32 µg/mL (≈ 81.1 µM)
Staphylococcus aureus [14]
  MIC: 64 µg/mL (≈ 162 µM)
Enterococcus faecalis [15]
  MIC: 128 µg/mL (≈ 325 µM)

## COc1ccc(/C=C/C(=O)c2ccc(-c3ccc(N4C[C@H](CO)OC4=O)cc3)cc2)cc1
Staphylococcus aureus [3]
  MIC: 3.12 µg/mL (≈ 7.28 µM)
Bacillus subtilis [4]
  MIC: 3.12 µg/mL (≈ 7.28 µM)
Escherichia coli [5]
  MIC: 3.12 µg/mL (≈ 7.28 µM)
Klebsiella pneumoniae
  MIC: 3.12 µg/mL (≈ 7.28 µM)
Pseudomonas aeruginosa [6]
  MIC: 3.12 µg/mL (≈ 7.28 µM)
Enterococcus faecalis [7]
  MIC: 3.12 µg/mL (≈ 7.28 µM)

## Cc1nc(C)c(COc2ccc(N3C[C@H](CNC(=O)C(Cl)Cl)OC3=O)cc2)nc1C
[12]
  MIC: 8 µg/mL (≈ 17.6 µM)
Staphylococcus aureus [13]
  MIC: 4 µg/mL (≈ 8.82 µM)
Staphylococcus aureus [14]
  MIC: 8 µg/mL (≈ 17.6 µM)
Enterococcus faecalis [15]
  MIC: 16 µg/mL (≈ 35.3 µM)

## O=C(O)c1cn(C2CC2)c2cc(N3CCNCC3)c(F)cc2c1=O [CIPROFLOXACIN]
Staphylococcus aureus [10]
  MIC: 6.25 µg
Bacillus subtilis [11]
  MIC: 6.25 µg

## Cc1nc(C)c(COc2ccc(N3C[C@H](CNC(=O)c4ccco4)OC3=O)cc2)nc1C
[12]
  MIC: 64 µg/mL (≈ 147 µM)
Staphylococcus aureus [13]
  MIC: 64 µg/mL (≈ 147 µM)
Staphylococcus aureus [14]
  MIC: 128 µg/mL (≈ 293 µM)
Enterococcus faecalis [15]
  MIC: > 128 µg/mL

## CC(=O)NC[C@H]1CN(c2ccc(N3CCN(/N=C/c4ccc([N+](=O)[O-])cc4)CC3)c(F)c2)C(=O)O1
Enterococcus
  MIC: 4 µg/mL (≈ 8.26 µM)
Staphylococcus aureus [1]
  MIC: 4 µg/mL (≈ 8.26 µM)
Staphylococcus aureus [2]
  MIC: 4 µg/mL (≈ 8.26 µM)

## CC(=O)NC[C@H]1CN(c2ccc(OCc3nc(C)c(C)nc3C)cc2)C(=O)O1
[12]
  MIC: 16 µg/mL (≈ 41.6 µM)
Staphylococcus aureus [13]
  MIC: 8 µg/mL (≈ 20.8 µM)
Staphylococcus aureus [14]
  MIC: 16 µg/mL (≈ 41.6 µM)
Enterococcus faecalis [15]
  MIC: 32 µg/mL (≈ 83.2 µM)

## CC(=O)NC[C@H]1CN(c2ccc(N3CCN(/N=C/c4ccc([N+](=O)[O-])o4)CC3)c(F)c2)C(=O)O1
Enterococcus
  MIC: 1 µg/mL (≈ 2.11 µM)
Staphylococcus aureus [1]
  MIC: 0.25 µg/mL (≈ 0.527 µM)
Staphylococcus aureus [2]
  MIC: 1 µg/mL (≈ 2.11 µM)

## CC(=O)NC[C@H]1CN(c2ccc(OCc3nc(C)c(C)nc3C)c(F)c2)C(=O)O1
[12]
  MIC: 4 µg/mL (≈ 9.94 µM)
Staphylococcus aureus [13]
  MIC: 4 µg/mL (≈ 9.94 µM)
Staphylococcus aureus [14]
  MIC: 8 µg/mL (≈ 19.9 µM)
Enterococcus faecalis [15]
  MIC: 16 µg/mL (≈ 39.8 µM)
